This is an account of results in patent US20230192789A1, “STRUCTURALLY-STABILIZED AND HDMX-SELECTIVE P53 PEPTIDES AND USES THEREOF” (Dana-Farber Cancer Institute, Inc., priority 2020, published 2023).

Entries after “also recorded” stand apart in the source; their conditions may differ. Bridges are numbered along the chain shown (N, C = ends). Where no end group is shown, it is not given here. [ ]: non-standard residue; d: D form. The star is where a group is joined. Biotin = O=C1N[C@H]2[C@H](CS[C@H]2CCCCC(=O)*)N1; R8 = C=CCCCCCC[C@@](C)(N)C(=O)O; S5 = C=CCCC[C@](C)(N)C(=O)O

In series [1] the test system is EOL-1 cells. Briefly: LDH release assay, EOL-1. The format is cell-based. The following applies: EOL-1, 90 minutes after peptide treatment, highest dosing level. On the procedure:
(§1) LDH release assay: To assess the release of lactate dehydrogenase (LDH) upon treatment with a structurally-stabilized peptide described herein, an LDH release assay can be used. Cultured cells, including, e.g., cancer cells and HUVEC cells, are plated in 96-well format (2x10^4 cells per well; including overnight incubation for adherent cells) and then treated with serial dilutions of structurally-stabilized peptides in a final volume of 100 µL and incubated at 37° C. for the indicated time period (e.g., 90 minutes). The plates are spun down at 1500 rpm for 5 minutes at 4° C., and 80 µL of cell culture media is transferred to a clear plate (Corning), incubated with 80 µL of LDH reagent (Roche) for 15 minutes while shaking, and absorbance is measured at 490 nm on a microplate reader (SpectraMax M5 Microplate Reader, Molecular Devices).
(§2) LDHRelease Assay: OCI-AML2 cells (1 × 10^4 cells/well) were plated in 96-well plates and treated with the indicated peptides or vehicle (0.2% DMSO). After 1.5 hours incubation at 37° C., 100 µl of cell medium was transferred to a 96-well clear plate and incubated with 100 µl of LDH reagent (Roche) for 25 minutes while shaking, and absorbance at 490 nm measured on a microplate reader (SpectraMax M5 Microplate Reader, Molecular Devices).
A general note: LDH in the medium is a marker of cell lysis.

Series [2] concerns OCI-AML2 cells. Briefly: Cell viability (CellTiter-Glo), OCI-AML2. The following applies: OCI-AML2, 48 and 72 hours of treatment, acetylated stapled peptide. For orientation: Cellular ATP, detected with luciferase, serves as a proxy for viable cell number.
Series [3] has as its system OCI-AML2 cells. Briefly: LDH release assay, OCI-AML2. It counts as cell-based. The following applies: OCI-AML2, 90 minutes after peptide treatment, highest dosing level. On the procedure: as §1, §2
In series [4] the target is T1, recombinant HDMX (amino acids 1-490 of SEQ ID NO:104) (Homo sapiens, UniProt O15151).
T1 construct: thioredoxin (N, cleaved yes); S tag (N, cleaved yes); hexahistidine (N, cleaved yes); made in house; host or cells: E. coli (inferred: pET32-LIC vector, handled as described for HDM2 in BL21(DE3))
T1 sequence (O15151 1-490): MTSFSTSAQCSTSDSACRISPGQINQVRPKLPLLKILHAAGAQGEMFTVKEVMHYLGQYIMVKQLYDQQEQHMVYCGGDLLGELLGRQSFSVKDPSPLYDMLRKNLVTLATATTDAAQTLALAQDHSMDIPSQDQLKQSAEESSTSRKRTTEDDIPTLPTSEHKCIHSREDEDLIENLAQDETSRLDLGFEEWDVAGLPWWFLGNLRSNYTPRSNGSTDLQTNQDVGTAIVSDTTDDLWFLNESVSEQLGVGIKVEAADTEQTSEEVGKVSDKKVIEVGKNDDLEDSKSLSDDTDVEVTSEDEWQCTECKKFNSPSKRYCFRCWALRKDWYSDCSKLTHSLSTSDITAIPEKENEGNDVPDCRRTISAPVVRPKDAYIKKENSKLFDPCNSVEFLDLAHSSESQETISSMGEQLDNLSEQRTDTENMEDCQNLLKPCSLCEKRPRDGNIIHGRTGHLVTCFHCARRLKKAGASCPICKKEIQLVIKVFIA
Briefly: Competitive streptavidin pull-down of biotinylated peptides with 1:1 recombinant HDM2/HDMX mixture, HDMX western. It counts as binding. The following applies: biotinylated stapled peptide, 1:1 mixture of recombinant HDM2 and HDMX.

The test system of series [5] is EOL-1 cancer cells. Briefly: Cell viability, EOL-1. Conditions: EOL-1, 48 and 72 hours of treatment, acetylated stapled peptide.
Series [6] addresses T2, recombinant HDM2 (amino acids 17-125 of SEQ ID NO:103) (human, UniProt Q00987 17-125).
T2 construct: also called MDM2; not shown: thrombin cleavage site (pET28a vector)
Briefly: isothermal titration calorimetry, peptide titrated into HDM2.

For series [7], the target named is T2, recombinant HDM2 (amino acids 17-125 of …). Briefly: fluorescence polarization, FITC-labelled peptide titrated with HDM2. For orientation: Polarisation of emitted light reports the rotation of a fluorescent probe.
The target is the same in series [8]. Briefly: streptavidin pull-down of biotinylated peptide with recombinant HDM2 and HDMX (1:1 mixture per paragraph 301), western blot.

T2 sequence (Q00987 other isoform, or with tags, fused parts or gaps): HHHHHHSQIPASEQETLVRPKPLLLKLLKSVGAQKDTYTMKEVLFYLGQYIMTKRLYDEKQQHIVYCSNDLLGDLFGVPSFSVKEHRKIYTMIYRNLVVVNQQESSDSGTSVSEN

On to `COC(=O)CC[C@@H]1NC(=O)[C@H](CCC(N)=O)NC(=O)[C@H](C)NC(=O)[C@H](Cc2c[nH]c3ccccc23)NC(=O)[C@H](Cc2ccc(O)cc2)NC(=O)[C@H](CCC(=O)O)NC(=O)[C@](C)(NC(=O)[C@H](Cc2ccccc2)NC(=O)[C@@H](NC(=O)[C@H](CC(C)C)NC(C)=O)[C@@H](C)O)CCCCCCC=CCCC[C@@](C)(C(=O)N[C@@H](CO)C(=O)N[C@@H](C)C(=O)N[C@@H](C)C(N)=O)NC1=O` [ATSP-7041 B26E(OMe), LTF8EYWAQ#XSAA], for which the “non-specific membrane disruption (LDH release)” value in series [1] and in series [3] was “no non-specific membrane disruptive activity” each time. For the same molecule, the cancer cell cytotoxicity entry in series [2] and in series [5] was “dose-responsive cancer cell cytotoxicity; also recorded: enhance killing activity” each time. The “HDMX versus HDM2 binding selectivity” value in series [4] is given as “selectivity to HDMX”.

B1: SAH-p53-4 L26E (peptide)
peptide: LSQETF[R8]DLWKLE[S5]EN
modifications: staple 7-14; also: N-terminus biotin, acetyl or FITC depending on assay
As a reminder, the Kd is a measure of binding affinity in units of concentration. With B1, the values for the Kd in series [6] and in series [7] were 256 nM and 149 nM, respectively.

B2: SAH-p53-8 L26E (peptide)
peptide: Biotin-QSQQTF[R8]NLWRLE[S5]QN-NH2
modifications: staple 7-14
notes: also called QSQQTF8NLWRLEXQN
For the molecule B2, the binding result in series [8] was “no binding”.
